The test system of experiment [1] is IgA-α1AT complex. Kind of experiment: HPLC analysis of in vitro dissociation of purified IgA-α1AT complex. Format: biochemical, human. To be noted: for HPLC minimum: Table 5, minimum concentration giving complex : free IgA ratio at 20% (base-line 14%), 90 minutes at 37°C, >500µM = no complex dissociation at highest concentration tested; for activity: comment in words on Tables 3-5, assay not given, fits the HPLC values. The procedure:
The ability of the peptides of the invention to dissociate purified IgA-α1AT complex in vitro was tested as described below. The anti-rheumatic drug D-penicillamine and other synthetic peptides were used as controls. […] The sample was monitored at wavelength 206nm at a flow rate of 1ml/minute with phosphate buffer (0.1M) pH 7.1. […] They represent the ability of the peptides to dissociate the IgA-α1AT complex in vitro. In these experiments, the base-lines level comprises a complex : free IgA ratio of 14% . The minimum concentration of peptide taken to produce a positive dissociation effect is that which results in a complex: free IgA ratio at 20%. In the results tables, all the peptide values are expressed in µMoles.

For experiment [2], the system named is alternative complement (C3) pathway. The experiment is described as follows: Inhibition of C3-activation: preventing IgA-α1AT complex from activating the alternative complement pathway, rabbit erythrocyte haemolysis read-out. Format: biochemical, human. The following applies: Table 5; minimum concentration needed to prevent C3 activation.
The subject of experiment [3] is mouse macrophage cell line (PU 518). Kind of experiment: Macrophage inhibition assay: IgA-α1AT complex-stimulated release of lysosomal enzymes. Format: cell-based. The procedure:
A mouse macrophage cell line (PU 518) was stimulated to release lysosomal enzymes by the addition of purified human IgA-α1AT complex. The degree to which this release was then inhibited by the peptides or other drugs was investigated, with the degree of inhibition being indicative of activity; the concentration of peptide or other test drugs giving 50% inhibition being recorded. Briefly the method was as follows:
25µl of peptide or drug was double diluted in […] + 10% foetal calf serum (FCS) in a sterile tissue culture 96 well plate. 25µl of IgA-α1AT complex in RPMI 1640 +10% FCS at about 0.2mg/ml was then added to all wells. 50µl of cells at a concentration of 2 x 10^6 cells/ml in RPMI 1640 + 10% FCS was then added to each well.
Control wells of cells alone and cells + IgA-α1AT complex were also prepared. The plate was then gently mixed and incubated overnight (16hr) at 37°C in a 4% CO2 atmosphere. Plates were then centrifuged at 1200 rpm for 10 minutes in a bench top centrifuge.
40µl of supernatant was then taken from each well and added to a 96 well polystyrene assay plate, to which was added 40µl of 160mM acetate buffer (pH 4.3) containing 2mM phenolphthalein-β-D-glucuronic acid. To obtain a standard curve, dilutions of phenolphthalein in acetate buffer from 100-5µg/ml were also added to separate wells in the assay plate.
The plates were then incubated at 37°C for 4 hours before 150µl of 0.2M glycine/NaOH buffer (pH 10.6) containing 0.2M NaCl was added to stop the reaction.
Plates were then shaken for 3 minutes before the optical density at 570nm was read on a plate reader, and the amount of β-D-glucuronic acid released from the cells calculated. The concentration of peptide or drug giving 50% inhibition of release was then noted.
The results for the macrophage inhibition assays are expressed as the concentration needed to prevent 50% release of β-glucoromidase.

Experiment [4] concerns alternative complement (C3) pathway. The experiment is described as follows: Inhibition of C3-activation: preventing IgA-α1AT complex from activating the alternative complement pathway, rabbit erythrocyte haemolysis read-out. Format: biochemical, human. The following applies: Table 5; minimum concentration needed to prevent C3 activation. The protocol:
Various peptides were tested for their ability to prevent the IgA-α1AT complex from activating the alternative complement (C3) pathway.
The method of measuring the capacity to activate the alternative complement pathway by the non-immune IgA-α1AT complex and the subsequent inhibition of this activation by anti-rheumatic peptides is described below.
This method was based on the method described by Riches and Stanworth, Immunology Letters, 1980, 1, 363,366, with modification to miniaturise it thus allowing the assay to be carried out on microtitre plates.
The initial observation by Platts-Mills and Ishizaka (J Immunol. (1974) 113, 348,358) that low dilutions of fresh normal human serum, from which calcium had been removed by chelation with 10mM EGTA to block the classical complement pathway, caused greater than 90% haemolysis of unsensitised rabbit erythrocytes when incubated at 37°C was employed in this assay.
The non-immune complex IgA-α1AT had been shown in the past to be the only known soluble complex to activate the alternative pathway complement and […] of the rabbit erythrocytes. This inhibition required biologically active complex.
The buffers solutions required in this assay were (a) Total lysis buffer (1% Triton100 in ultra pure water), (b) Alternative pathway complement fixation diluent (APCFD) which was:- • 83 volumes CFD, DH 7.2 (1 oxoid tablet: 100ml UPW) • 10 volumes 0.1M EGTA pH 7.2 • 7 volumes MgCl2 pH 7.2
Blood was obtained by venipuncture from a healthy human individual. The blood was allowed to clot for 1 hour at room temperature and then stored overnight at 4°C. The serum was removed and stored at -70°C in lml aliquots. For use, the serum was defrosted and 100µl of 0.1m EGTA pH 7.2 and 70µl O.lm MgCl2 pH 7.2 was added.
Rabbit red blood cells (RBC) were obtained by venipuncture of a healthy rabbit and collected into 0.1M citrate buffer pH 6.2. The RBC were washed 3 times in citrate buffer and the cells were stored in this buffer which was changed every week. It was possible to store cells in this way for 3 weeks. Peptides
The peptides were synthesised as described in Example 1 and made up in UPW to lmM. They were kept frozen at -70°C prior to use.
This was prepared as previously described in Example 2. It was kept frozen in small aliquots prior to use.
Using a round bottomed welled flexible microtitre plate 100µl neat serum (with added EGTA and MgCl2) was added to the first wells in duplicate. This was double diluted out, with APCFD to give a volume of 50µl well. 8 test wells (+ duplicates) were sufficient. 8 wells were prepared as a positive control - (100µl 1% Triton/UPW). 8 wells were prepared as a negative control - (100µl APCFD (Blank)).
50µl of APCFD was added to the test wells and 50µl of 1% rabbit RBC was added to all wells. The plate was then incubated at 37°C for 30 minutes and then centrifuged for 10 minutes at 2000 rpm.
75µl of the supernatant was carefully removed and plated onto a flat bottom welled microtitre plate. The plates were then read at 410nm interference, 690nm reference. The zero or blank value was calculated as the mean value of negative control wells and using the mean of the positive control wells, the percentage lysis for serum dilutions was calculated. In future assays the serum dilution in which lysis was approx. 80% of Rb RBC was used. This was usually in the range 1:4 - 1:6 dilution (ie. lml serum : 4ml APCFD - 6ml APCFD).
A 1:1 dilution of IgA-α1AT complex was made with twice concentrated APCFD. 100µl of this 1:1 dilution of complex was added to the first wells in duplicate. This was double diluted out with APCFD to give 50 µl per well. 50µl of the predetermined dilution of serum (see (i) above) was added to each well. Positive and negative control wells as described in (a) above and wells containing serum alone were used as controls. The plates were incubated at 37°C for 30 minutes and then centrifuged at 2000 rpm for 1 minute. […]
This is another data set of the same source.

[5] abbreviates: Table 5, head prints no unit, b70 says all values of the results tables are in µMoles, concentration needed to prevent 50% release of β-glucoromidase.

pIC50: −log10 of the molar value.

As a reminder, the pIC50 is the negative decadic logarithm of the IC50, by convention in mol/L. Low readings indicate a large IC50, high ones a small IC50.

In the case of `N[C@@H](CS)C(=O)O` [Cysteine], in experiment [1], the “HPLC minimum” value is 250 µM. Also, the “C' minimum” value in experiment [2] is recorded as 16 µM. Moreover, the negative logarithm of the IC50 (pIC50) in experiment [3] (setting [5]) was 3.30.
Regarding `CC(C)(S)[C@@H](N)C(=O)O` [D-Penicillamine], the “HPLC minimum” value in experiment [1] stood at 250 µM. Moreover, in experiment [2], the “C' minimum” value was 31 µM. This compound showed a pIC50 in experiment [3] (setting [5]) of 3.30.
Regarding `N[C@@H](CCC(=O)N[C@@H](CS)C(=O)NCC(=O)O)C(=O)O` [Glutathione], in experiment [1], the “HPLC minimum” value worked out at 500 µM and the activity result was “relatively inactive”. Also, the “C' minimum” value in experiment [2] is reported as 31 µM.
Turning to `CC(=O)N[C@@H](CS)C(=O)O` [N-acetyl Cysteine], in experiment [1], the “HPLC minimum” value was determined as 500 µM and the activity entry is “relatively inactive”. Also, the “C' minimum” value in experiment [2] is recorded as 4 µM.
Take “Substance P [Peptide 36, reference compound]”: in experiment [4], the “C' minimum” value is reported as more than 500 µM. Besides, in experiment [1], the “HPLC minimum” value is recorded as more than 500 µM. In experiment [3] (Table 5; head prints no unit, b70 says all values of the results tables are in µMoles; concentration needed to prevent 50% release of β-glucoromidase), this compound gave a pIC50 of less than 3.30.
